This is an account of results in PMC4980431, “Ctf4 Is a Hub in the Eukaryotic Replisome that Links Multiple CIP-Box Proteins to the CMG Helicase” (Molecular Cell, 2016).

One assay concerns Ctf4 471–927 (Ctf4CTD). Nature of the assay: GST pull-down. It is filed as binding, budding yeast. As to conditions: GST fusion on Glutathione Sepharose; Ctf4CTD 2 mg/ml, 1 hr 4°C; SDS-PAGE. On the procedure: For each Dna2 construct to be tested for interaction with Ctf4CTD, a 25-ml E. coli Rosetta2 (DE3) culture overexpressing the GST-fusion construct was pelleted, resuspended in buffer (50 mM Tris [pH 7.0], 500 mM NaCl, 10% [w/v] glycerol, 1 mM DTT, and protease inhibitors) (Sigma), and lysed by sonication. Following centrifugation, the soluble extract was mixed with 50 μl of Glutathione Sepharose beads (GE Healthcare) pre-equilibrated in the same buffer, and incubated under rotation at 4°C for 1 hr. Unbound protein was removed by three consecutive washes with 1 ml of buffer, followed by three 1-ml washes with pull-down buffer (20 mM HEPES [pH 7.2], 150 mM NaCl, 5% [w/v] glycerol, 0.1% Igepal CA-630, 1 mM TCEP, and 1% BSA). Subsequently, 500 μl of purified Ctf4CTD protein at a concentration of 2 mg/ml was added to the Sepharose beads and binding was allowed to take place for an additional 1 hr at 4°C. The binding reaction was stopped by two consecutive washes with 1 ml of pull-down buffer and a final 1 ml wash with pull-down buffer without BSA. The Sepharose beads were mixed with SDS loading dye and Ctf4CTD interactions with the respective bait proteins were detected via SDS-PAGE.

The target of assay [1] is T1, Ctf4 471-927 (Ctf4CTD) (Saccharomyces cerevisiae, UniProt Q01454).
T1 sequence (Q01454 471-927): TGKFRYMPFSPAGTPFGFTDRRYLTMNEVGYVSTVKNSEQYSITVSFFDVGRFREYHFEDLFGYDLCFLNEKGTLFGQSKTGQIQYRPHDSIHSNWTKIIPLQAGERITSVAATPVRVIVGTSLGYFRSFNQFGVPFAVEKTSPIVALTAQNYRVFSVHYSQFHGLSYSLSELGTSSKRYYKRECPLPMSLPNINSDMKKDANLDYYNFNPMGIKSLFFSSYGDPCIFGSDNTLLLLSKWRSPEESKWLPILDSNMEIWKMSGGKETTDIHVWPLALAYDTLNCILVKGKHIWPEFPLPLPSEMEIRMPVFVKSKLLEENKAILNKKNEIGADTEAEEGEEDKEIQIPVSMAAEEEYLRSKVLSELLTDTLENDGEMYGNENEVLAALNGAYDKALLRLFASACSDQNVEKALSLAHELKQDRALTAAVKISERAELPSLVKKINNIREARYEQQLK
Nature of the assay: Fluorescence anisotropy, peptide binding to Ctf4 471-927. The arrangement: species or system budding yeast. The conditions noted are these: 40 nM fluorescein-labeled Tof2 peptide, pH 7.2, 25°C, single measurement. The method, then: The lowest concentration of peptide at which the binding studies could be performed was determined via peptide calibration curves. Fluorescence anisotropy measurements were recorded in a PHERAstar Plus multi-detection plate reader (BMG Labtech) equipped with fluorescence polarization optic module (λex = 485 nm; λem = 520 nm) at 25°C. Each data point is the mean of 200 flashes/well. The voltage gain was set by adjusting the target mP values of fluorescein-labeled peptides relative to that of fluorescein (35 mP). Serial dilutions of Ctf4CTD were made in 20 mM HEPES (pH 7.2), 140 mM KCl, and 5% (w/v) glycerol in the presence of 40 nM (Sld5 and Tof2) or 50 nM (Dna2) fluorescein-labeled peptide. For Dna2 peptide, each data point is the mean of three independent experiments and curve fitting to the experimental data was performed in pro Fit 6.2 (QuantumSoft) using a Levenberg-Marquardt fitting algorithm in combination with a Gaussian error distribution analysis.
(In general: Polarisation of emitted light reports the rotation of a fluorescent probe.)

For the next assay, the system named is Ctf4 471–927. Nature of the assay: Native mass spectrometry. The class given is binding, budding yeast. The conditions noted are these: for direct binding to Ctf4 (in words): 500 mM ammonium acetate, 5-fold or 10-fold molar excess of peptide, 100 μM protein, minimum 30 min. The method, then:
In preparation for non-denaturing nano-electrospray ionization mass spectrometry (native mass spectrometry), Ctf4 471–927 was subjected to two successive rounds of buffer exchange into 500 mM ammonium acetate using illustra NAP-5 columns (GE Healthcare). Following buffer exchange, a 5-fold or 10-fold molar excess of Dna2 peptide 207- […] -223 or Tof2 peptide 497- […] -517 solubilized in 500 mM ammonium acetate was mixed with Ctf4CTD at a final protein concentration of 100 μM and incubated for a minimum of 30 min. Native mass spectra were recorded on a Synapt HDMS instrument (Waters) and calibrated using caesium iodide (100 mg ml^−1) as described previously ([Hernández and Robinson, 2007], [Simon et al., 2014]).

The target of assay [2] is T1, Ctf4 471-927 (Ctf4CTD). As to conditions: isolated CIP-boxes; quoted in Discussion; ref Simon et al., 2014; read-out: affinity constant Kd; cited from earlier work. The text has this:
The way that CIP-box proteins compete with each other for binding to Ctf4 remains an interesting issue for future investigation.

As to SHAKDVKIQETIRKLNRFKPT [Tof2 peptide], the “pull-down of Ctf4 (in words)” value in the assay on Ctf4 471–927 (Ctf4CTD) is on record as “could indeed bind directly to Ctf4 in vitro”. Also, the “Kd (result in words)” value on Ctf4 471-927 (Ctf4CTD) [1] is on record as “too weak to be quantified reliably”; at Ctf4 471-927 (Ctf4CTD) [1] (listed as Tof2) it was “not determinable”. In addition, the “direct binding to Ctf4 (in words)” value in the assay on Ctf4 471–927 (listed as Tof2 CIP) is recorded as “binds directly to Ctf4”; in the assay with Ctf4 471–927 (listed as peptide containing the Tof2 CIP-box) it was “could indeed bind directly to Ctf4 in vitro”. The “hierarchy of affinities / occupancy of binding sites by CIP-box peptides” value in the assay with Ctf4 471–927 (hierarchy of affinities said to be reflected in native MS occupancy, Figures S3B and S4A, Simon et al., 2014) is recorded as “Sld5 > Pol1 > Dna2 > Tof2”.
Turning to “CIP-box of Sld5: isolated CIP-box of Sld5, affinity quoted from Simon et al., 2014 (MDINIDDILAELDKETTAVD; fluorescein label (N-terminal probable); the exact peptide limits are in Simon et al. 2014)”, the Kd in the assay with Ctf4 471-927 (Ctf4CTD) [2] is 5 µM.

A word on the Kd: it is the concentration at which binding is half-saturated.
